Experiment: xn = mol fraction of the nth substance listed
Conditions: 100 kPa

C[N+](C)(C)CCC[N+]1(C)CCCCC1.N#C[N-]C#N.N#C[N-]C#N + CO
viscosity [mPa·s]
Conditions	x1 = 0.0999	x1 = 0.2001	x1 = 0.3002	x1 = 0.3999	x1 = 0.5002	x1 = 0.6001	x1 = 0.7003	x1 = 0.7998	x1 = 0.8995	x1 = 1
293.15 K	4.25	14.7	39.6	109	–	–	1181	1884	2855	4503
303.15 K	3.58	–	–	70.3	–	330	610	920	1281	1837
313.15 K	3.09	8.9	20.3	46.7	100	203	337	489	646	860
323.15 K	–	7.22	–	33.8	68	130	206	292	369	460
333.15 K	2.46	6	12.5	–	48.4	88.2	134	187	236	270

C[N+](C)(C)CCC[n+]1ccccc1.N#C[N-]C#N.N#C[N-]C#N + CO
viscosity [mPa·s]
Conditions	x1 = 0.0999	x1 = 0.2001	x1 = 0.3002	x1 = 0.3999	x1 = 0.5002	x1 = 0.6001	x1 = 0.7003	x1 = 0.7998	x1 = 0.8995	x1 = 1
293.15 K	4.37	14.9	32.5	–	117	233	343	508	–	2191
303.15 K	3.66	11.4	23.1	45.9	–	131	–	255	396	830
313.15 K	–	9.01	17.4	–	–	81.1	110	–	198	–
323.15 K	2.82	7.36	–	–	–	–	70.6	90.5	116	210
333.15 K	–	–	11.4	–	28	–	49.3	60.6	76	127

CO + C[N+](C)(C)CCC[N+]1(C)CCCCC1.N#C[N-]C#N.N#C[N-]C#N
x2 = 0
Conditions	viscosity [mPa·s]
303.15 K	0.508
313.15 K	0.446
333.15 K	0.352

CO + C[N+](C)(C)CCC[n+]1ccccc1.N#C[N-]C#N.N#C[N-]C#N
x2 = 0
Conditions	viscosity [mPa·s]
293.15 K	0.584
303.15 K	0.508
313.15 K	0.446
323.15 K	0.395
333.15 K	0.352

Source: a compilation of properties of binary mixtures (doi:10.1021/acs.jced.8b00965)
